Results taken from ChEMBL document CHEMBL3244033, “Potential antitumor agents. 21. Dialkanolamine dialkanesulfonic esters” (J Med Chem, 1977).

Experiments:
Mus musculus = assay: Acute toxicity in ip dosed C3H/HeJ female X DBA2/J male F1 hybrid mouse allografted with mouse L1210 cells assessed as mortality administered as single dose; format: organism-based; details: in vivo
[1] = Lipophilic-hydrophilic balance, Rm of the compound using mixture of glycerol, i-BuOH and 1-pentanol plus methanesulfonic acid as solvent system by acidic reversed-phase chromatography; format: physicochemical
L1210 = assay: Antileukemic activity against mouse L1210 cells allografted in ip dosed C3H/HeJ female X DBA2/J male F1 hybrid mouse assessed as maximal increase in host life span at LD10 administered as single dose 24 hrs after tumor implantation; format: functional
[2] = Dissociation constant, pKa of the compound; format: physicochemical

| Compound | LD10 (Mus musculus) [mg/kg] | Rm [1] | Activity (L1210) [%] | pKa [2] |
| --- | --- | --- | --- | --- |
| CCS(=O)(=O)OCCNCCOS(=O)(=O)CC.Cl | 35 | -0.64 | 26 |  |
| CCCS(=O)(=O)OCCCCCCNCCCOS(=O)(=O)CCC.Cl | 137 | 0.32 | 45 |  |
| CCCS(=O)(=O)OCCCNCCCOS(=O)(=O)CCC.Cl | 285 | 0.09 | 75 |  |
| CS(=O)(=O)OCCCNCCCOS(C)(=O)=O.Cl | 170 | -0.88 | 84 | 8.77 |
| CS(=O)(=O)OCCNCCOS(C)(=O)=O.Cl | 25 | -1.13 | >25 |  |
| CCS(=O)(=O)OCCCNCCCOS(=O)(=O)CC.Cl | 410 | -0.47 | 100 |  |
| CCS(=O)(=O)OCCCCCCNCCCOS(=O)(=O)CC.Cl | 61 | -0.05 | 78 |  |
| CS(=O)(=O)OCCCCCCNCCOS(C)(=O)=O.Cl | 185 | -0.71 | 91 |  |
| CCCS(=O)(=O)OCCNCCOS(=O)(=O)CCC.Cl | 210 | -0.1 | 57 |  |
| CCCCCS(=O)(=O)OCCNCCOS(=O)(=O)CCCCC.Cl | 520 | 0.76 | 78 |  |
| CCCS(=O)(=O)OCCCCCCNCCOS(=O)(=O)CCC.Cl | 225 | 0.27 | 59 |  |
| CCCCS(=O)(=O)OCCNCCOS(=O)(=O)CCCC.Cl | 750 | 0.37 | 105 |  |
| CS(=O)(=O)OCCCCCCNCCCOS(C)(=O)=O.Cl | 33 | -0.65 | 107 |  |
| CCS(=O)(=O)OCCCCCCNCCOS(=O)(=O)CC.Cl | 285 | -0.19 | 83 |  |
| CCCCS(=O)(=O)OCCCNCCCOS(=O)(=O)CCCC.Cl |  | 0.45 |  |  |
| CCCCS(=O)(=O)OCCNCCCCCCOS(=O)(=O)CCC.Cl | 200 | 0.51 | 35 |  |
